FC(F)(F)c1cccnc1Cl
solubility (mole fraction)
Conditions | 273.15 K | 278.15 K | 283.15 K | 288.15 K | 293.15 K | 298.15 K | 303.15 K
in dichloromethane | 0.281 | 0.365 | 0.41 | 0.469 | 0.551 | 0.625 | 0.741
in ethanol | 0.137 | 0.182 | 0.253 | 0.355 | 0.475 | 0.635 | 0.875
in n-heptane | 0.037 | 0.0552 | 0.0887 | 0.14 | 0.222 | 0.36 | 0.556
in n-hexane | 0.046 | 0.0733 | 0.118 | 0.199 | 0.336 | 0.488 | 0.762
in n-propanol | 0.0727 | 0.0992 | 0.132 | 0.183 | 0.253 | 0.355 | 0.492
in toluene | 0.35 | 0.413 | 0.491 | 0.569 | 0.653 | 0.724 | 0.862
